Measured values published in patent US20100190735A1, “Mouthwash and Method of Using Same for the Treatment of Mucositis or Stomatitis” (priority 2006, published 2010).
Counter-ions that a name gives are not always drawn. Like-named read-outs stand apart in the source and are kept apart here.

Legend:
[1] = Storage stability of mouth rinse formulation B8: potency of the actives by HPLC; assay type: physicochemical
Source text: (§1) Quantification of the respective ingredients was done using high performance liquid chromatography (HPLC). A difference in calculated quantity of less than 5% from the intial formulation (i.e. time=0) amount was considered a “pass”, that is, indicative of minimal degradation. The relative standard deviation for the HPLC calculations was 3%.

[2] = Storage stability of formulation B8: preservative assay by HPLC; assay type: physicochemical
Source text: as §1

[3] = in H2O, cited from earlier work
[4] = formulation B8, 2 months at 40° C.
[5] = formulation B8, 2 months at 40° C., 90 to 110% of label claim, less than 5% change
[6] = formulation B8, 2 months at room temperature
[7] = formulation B8, 2 months at room temperature, 90 to 110% of label claim, less than 5% change
[8] = formulation B8, 3 months at 40° C.
[9] = formulation B8, 3 months at 40° C., 90 to 110% of label claim, less than 5% change
[10] = formulation B8, 3 months at room temperature
[11] = formulation B8, 3 months at room temperature, 90 to 110% of label claim, less than 5% change
[12] = formulation B8, 4 months at 40° C.
[13] = formulation B8, 4 months at 40° C., 90 to 110% of label claim, less than 5% change
[14] = formulation B8, 4 months at room temperature, 90 to 110% of label claim, less than 5% change
[15] = formulation B8, 12 months at fridge 4° C.
[16] = formulation B8, 12 months at fridge 4° C., 90 to 110% of label claim, less than 5% change
[17] = formulation B8, 12 months at room temperature
[18] = formulation B8, 12 months at room temperature, 90 to 110% of label claim, less than 5% change
[19] = formulation B8, time = 0, limits 90 to 110% of label claim

CCN(CC)CC(=O)Nc1c(C)cccc1C [Lidocaine HCl]
Potency (of label claim) [1, 4]: 98.1%
Potency Pass/fail [1, 5]: Pass (A difference in calculated quantity of less than 5% from the intial formulation (i.e. time=0) amount was considered a “pass”)
Potency (of label claim) [1, 6]: 99.7%
Potency Pass/fail [1, 7]: Pass (A difference in calculated quantity of less than 5% from the intial formulation (i.e. time=0) amount was considered a “pass”)
Potency (of label claim) [1, 8]: 102.15%
Potency Pass/fail [1, 9]: Pass (A difference in calculated quantity of less than 5% from the intial formulation (i.e. time=0) amount was considered a “pass”)
Potency (of label claim) [1, 10]: 101.8%
Potency Pass/fail [1, 11]: Pass (A difference in calculated quantity of less than 5% from the intial formulation (i.e. time=0) amount was considered a “pass”)
Potency (of label claim) [1, 12]: 102.9%
Potency Pass/fail [1, 13]: Pass (A difference in calculated quantity of less than 5% from the intial formulation (i.e. time=0) amount was considered a “pass”)
Potency Pass/fail [1, 14]: Pass (A difference in calculated quantity of less than 5% from the intial formulation (i.e. time=0) amount was considered a “pass”)
Potency (of label claim) [1, 15]: 101.4%
Potency Pass/fail [1, 16]: Pass (A difference in calculated quantity of less than 5% from the intial formulation (i.e. time=0) amount was considered a “pass”)
Potency (of label claim) [1, 17]: 101.4%
Potency Pass/fail [1, 18]: Pass (A difference in calculated quantity of less than 5% from the intial formulation (i.e. time=0) amount was considered a “pass”)
Potency (of label claim) ([1]; formulation B8, time = 0): 100.4%
Potency Pass/fail [1, 19]: Pass (A difference in calculated quantity of less than 5% from the intial formulation (i.e. time=0) amount was considered a “pass”)

COC(=O)c1ccc(O)cc1 [Methyl paraben]
Preservative assay [2, 4]: 95%
Preservative assay [2, 6]: 97.6%
Preservative assay [2, 8]: 95.7%
Preservative assay [2, 10]: 100.1%
Preservative assay [2, 12]: 97.1%
Preservative assay [2, 17]: Methyl P - 98.2%
Preservative assay ([2]; formulation B8, time = 0): paraben: 100.8%

C[C@@H]1C[C@H]2[C@@H]3CCC4=CC(=O)C=C[C@]4(C)[C@@]3(F)[C@@H](O)C[C@]2(C)[C@@]1(O)C(=O)COP(=O)(O)O [Dexamethasone sodium phosphate, Dexamethasone 21-phosphate disodium salt]
Solubility (Notes) ([3]; in words): H2O soluble

CN(C)CCOC(c1ccccc1)c1ccccc1 [Diphenhydramine HCl]
Potency (of label claim) [1, 4]: 100.2%
Potency Pass/fail [1, 5]: Pass (A difference in calculated quantity of less than 5% from the intial formulation (i.e. time=0) amount was considered a “pass”)
Potency (of label claim) [1, 6]: 100.8%
Potency Pass/fail [1, 7]: Pass (A difference in calculated quantity of less than 5% from the intial formulation (i.e. time=0) amount was considered a “pass”)
Potency (of label claim) [1, 8]: 101.7%
Potency Pass/fail [1, 9]: Pass (A difference in calculated quantity of less than 5% from the intial formulation (i.e. time=0) amount was considered a “pass”)
Potency (of label claim) [1, 10]: 101.85%
Potency Pass/fail [1, 11]: Pass (A difference in calculated quantity of less than 5% from the intial formulation (i.e. time=0) amount was considered a “pass”)
Potency (of label claim) [1, 12]: 100.1%
Potency Pass/fail [1, 13]: Pass (A difference in calculated quantity of less than 5% from the intial formulation (i.e. time=0) amount was considered a “pass”)
Potency Pass/fail [1, 14]: Pass (A difference in calculated quantity of less than 5% from the intial formulation (i.e. time=0) amount was considered a “pass”)
Potency (of label claim) [1, 15]: 102.4%
Potency Pass/fail [1, 16]: Pass (A difference in calculated quantity of less than 5% from the intial formulation (i.e. time=0) amount was considered a “pass”)
Potency (of label claim) [1, 17]: 103.0%
Potency Pass/fail [1, 18]: Pass (A difference in calculated quantity of less than 5% from the intial formulation (i.e. time=0) amount was considered a “pass”)
Potency (of label claim) ([1]; formulation B8, time = 0): 100.6%
Potency Pass/fail [1, 19]: Pass (A difference in calculated quantity of less than 5% from the intial formulation (i.e. time=0) amount was considered a “pass”)

CCCOC(=O)c1ccc(O)cc1 [Propyl paraben]
Preservative assay [2, 4]: 99.1%
Preservative assay [2, 6]: 99.3%
Preservative assay [2, 8]: 99.4%
Preservative assay [2, 10]: 100.4%
Preservative assay [2, 12]: 99.2%
Preservative assay [2, 17]: Propul P - 99.1%
Preservative assay ([2]; formulation B8, time = 0): paraben: 99.1%

C[C@@H]1[C@H](O)[C@@H](C)/C=C/C=C/CC/C=C/C=C/C=C/C=C/C(O[C@H]2O[C@H](C)[C@@H](O)[C@H](N)[C@@H]2O)CC2O[C@](O)(CC(O)C(O)CCC(O)CC(O)CC(O)CC(=O)O[C@H]1C)CC(O)C2C(=O)O (stereo partly drawn) [Nystatin]
Potency (of label claim) [1, 4]: 98.4%
Potency Pass/fail [1, 5]: Fail
Potency (of label claim) [1, 6]: 106.8%
Potency Pass/fail [1, 7]: Pass (A difference in calculated quantity of less than 5% from the intial formulation (i.e. time=0) amount was considered a “pass”)
Potency (of label claim) [1, 8]: 88.8%
Potency Pass/fail [1, 9]: Fail
Potency (of label claim) [1, 10]: 106%
Potency Pass/fail [1, 11]: Pass (A difference in calculated quantity of less than 5% from the intial formulation (i.e. time=0) amount was considered a “pass”)
Potency (of label claim) [1, 12]: 92.4%
Potency Pass/fail [1, 13]: Fail
Potency (of label claim) ([1]; formulation B8, 4 months at room temperature): 105.3%
Potency Pass/fail [1, 14]: Pass (A difference in calculated quantity of less than 5% from the intial formulation (i.e. time=0) amount was considered a “pass”)
Potency (of label claim) [1, 15]: 101.7%
Potency Pass/fail [1, 16]: Pass (A difference in calculated quantity of less than 5% from the intial formulation (i.e. time=0) amount was considered a “pass”)
Potency (of label claim) [1, 17]: 109.6%
Potency Pass/fail [1, 18]: Pass (A difference in calculated quantity of less than 5% from the intial formulation (i.e. time=0) amount was considered a “pass”)
Potency (of label claim) ([1]; formulation B8, time = 0): 108.5%
Potency Pass/fail [1, 19]: Pass (A difference in calculated quantity of less than 5% from the intial formulation (i.e. time=0) amount was considered a “pass”)
Solubility (Notes) ([3]; in words): slightly soluble-
Solubility (Notes) [3]: 4 mg/ml in H2O
